Laboratory results: patent US12077503B2, “Substituted cyclic amides and their use as herbicides” (FMC CORPORATION, priority 2015, dated 2024)

What was measured:
Format in all cases: in vivo
[1] = test system: sedge, umbrella (small-flower umbrella sedge, Cyperus difformis); experiment: Test B flooded paddy test; conditions: Cyperus difformis, 250 g ai/ha, Flood; 0 to 100 scale where 0 is no effect and 100 is complete control; read-out: Sedge, Umbrella plant response rating
Method in brief: (§1)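 Evaluation by eye, against controls, occurred 13–15 d post-treatment in a greenhouse, using a 0 (no effect) to 100 (complete control) scale. Application was into the paddy water, 3 cm deep over the soil, on 2-leaf plants.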

[2] = test system: rice (Oryra sativa); experiment: Test B flooded paddy test; conditions: Oryza sativa, 250 g ai/ha, Flood; 0 to 100 scale where 0 is no effect and 100 is complete control; read-out: Rice plant response rating
Method in brief: as §1

[3] = test system: ducksalad (Heteranthera limosa); experiment: Test B flooded paddy test; conditions: Heteranthera limosa, 250 g ai/ha, Flood; 0 to 100 scale where 0 is no effect and 100 is complete control; read-out: Ducksalad plant response rating
Method in brief: as §1

[4] = test system: barnyardgrass (Echinochloa crus-galli); experiment: Test B flooded paddy test; conditions: Echinochloa crus-galli, 250 g ai/ha, Flood; 0 to 100 scale where 0 is no effect and 100 is complete control; read-out: Barnyardgrass plant response rating
Method in brief: as §1

[5] = test system: giant foxtail (Setaria faberii); experiment: Test A postemergence; conditions: Setaria faberi, post-emergence, 240 h
Method in brief: (§2)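 In a loam soil and sand blend, planted seeds got a preemergence directed soil spray, and young plants at the one- to two-leaf stage, 2–10 cm high, got a postemergence application; ~10 d greenhouse hold; injury rated visually, 0 = none, 100 = complete control.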

[6] = test system: Kochia (Kochia scoparia); experiment: Test A postemergence; conditions: Bassia scoparia, post-emergence, 240 h
Method in brief: as §2

[7] = test system: pigweed (Amaranthus retroflexus); experiment: Test A postemergence; conditions: Amaranthus retroflexus, post-emergence, 240 h
Method in brief: as §2

[8] = test system: wheat (Triticum aestivum); experiment: Test A postemergence; conditions: Triticum aestivum, post-emergence, 240 h
Method in brief: as §2

[9] = test system: corn (Zea mays); experiment: Test A postemergence; conditions: Zea mays, post-emergence, 240 h
Method in brief: as §2

[10] = test system: blackgrass (Alopecurus myosuroides); experiment: Test A postemergence; conditions: Alopecurus myosuroides, post-emergence, 240 h
Method in brief: as §2

[11] = test system: barnyardgrass (Echinochloa crus-galli); experiment: Test A postemergence; conditions: Echinochloa crus-galli, post-emergence, 240 h
Method in brief: as §2

[12] = test system: ragweed (common ragweed, Ambrosia elatior); experiment: Test A postemergence; conditions: Ambrosia artemisiifolia, post-emergence, 240 h
Method in brief: as §2

[13] = test system: Galium (catchweed bedstraw, Galium aparine); experiment: Test A postemergence; conditions: Galium, post-emergence, 240 h
Method in brief: as §2

[14] = test system: ryegrass, Italian (Italian ryegrass, Lolium multiflorum); experiment: Test A postemergence; conditions: Lolium multiflorum, post-emergence, 240 h
Method in brief: as §2

[15] = test system: giant foxtail (Setaria faberii); experiment: Test A preemergence; conditions: Setaria faberi, pre-emergence, 240 h, 0 to 100 scale where 0 is no effect and 100 is complete control, read-out: Foxtail, Giant plant response rating
Method in brief: as §2

[16] = test system: Kochia (Kochia scoparia); experiment: Test A preemergence; conditions: Bassia scoparia, pre-emergence, 240 h, 0 to 100 scale where 0 is no effect and 100 is complete control, read-out: Kochia plant response rating
Method in brief: as §2

[17] = test system: pigweed (Amaranthus retroflexus); experiment: Test A preemergence; conditions: Amaranthus retroflexus, pre-emergence, 240 h, 0 to 100 scale where 0 is no effect and 100 is complete control, read-out: Pigweed plant response rating
[18] = test system: barnyardgrass (Echinochloa crus-galli); experiment: Test A preemergence; conditions: Echinochloa crus-galli, pre-emergence, 240 h, 0 to 100 scale where 0 is no effect and 100 is complete control, read-out: Barnyardgrass plant response rating
Method in brief: as §2

[19] = test system: ragweed (common ragweed, Ambrosia elatior); experiment: Test A preemergence; conditions: Ambrosia artemisiifolia, pre-emergence, 240 h, 0 to 100 scale where 0 is no effect and 100 is complete control, read-out: Ragweed plant response rating
Method in brief: as §2

[20] = test system: ryegrass, Italian (Italian ryegrass, Lolium multiflorum); experiment: Test A preemergence; conditions: Lolium multiflorum, pre-emergence, 240 h, 0 to 100 scale where 0 is no effect and 100 is complete control, read-out: Ryegrass, Italian plant response rating
Method in brief: as §2

[21] = 125 g ai/ha, preemergence, approx. 10 d

Cc1ccc([C@H]2CN(C)C(=O)[C@@H]2C(=O)Nc2cc(F)c(F)c(F)c2F)cc1 [Compound 1071]
pest or weed control at 250 g/ha [1]: 0%
pest or weed control at 250 g/ha [2]: 0%
pest or weed control at 250 g/ha [3]: 98%
pest or weed control at 250 g/ha [4]: 40%
pest or weed control at 125 g/ha ([5]; 125 g ai/ha, postemergence, visual injury on 0 to 100 scale (0 no effect, 100 complete control), approx. 10 d, read-out: Foxtail, Giant plant response rating): 80%
pest or weed control at 31 g/ha ([5]; Postemergence, 31 g ai/ha, visual injury after approx. 10 d, 0 to 100 scale, 0 no effect, 100 complete control, read-out: Plant response rating, Foxtail, Giant): 20%
pest or weed control at 125 g/ha ([6]; 125 g ai/ha, postemergence, visual injury on 0 to 100 scale (0 no effect, 100 complete control), approx. 10 d, read-out: Kochia plant response rating): 0%
pest or weed control at 31 g/ha ([6]; Postemergence, 31 g ai/ha, visual injury after approx. 10 d, 0 to 100 scale, 0 no effect, 100 complete control, read-out: Plant response rating, Kochia): 0%
pest or weed control at 125 g/ha ([7]; 125 g ai/ha, postemergence, visual injury on 0 to 100 scale (0 no effect, 100 complete control), approx. 10 d, read-out: Pigweed plant response rating): 0%
pest or weed control at 31 g/ha ([7]; Postemergence, 31 g ai/ha, visual injury after approx. 10 d, 0 to 100 scale, 0 no effect, 100 complete control, read-out: Plant response rating, Pigweed): 0%
plant injury at 125 g/ha ([8]; 125 g ai/ha, postemergence, visual injury on 0 to 100 scale (0 no effect, 100 complete control), approx. 10 d, read-out: Wheat plant response rating): 0%
plant injury at 31 g/ha ([8]; Postemergence, 31 g ai/ha, visual injury after approx. 10 d, 0 to 100 scale, 0 no effect, 100 complete control, read-out: Plant response rating, Wheat): 0%
plant injury at 125 g/ha ([9]; 125 g ai/ha, postemergence, visual injury on 0 to 100 scale (0 no effect, 100 complete control), approx. 10 d, read-out: Corn plant response rating): 0%
Corn plant response rating (crop injury, 0 = no effect, 100 = complete kill) at 31 g/ha ([9]; Postemergence, 31 g ai/ha, visual injury after approx. 10 d, 0 to 100 scale, 0 no effect, 100 complete control): 0%
pest or weed control at 125 g/ha ([10]; 125 g ai/ha, postemergence, visual injury on 0 to 100 scale (0 no effect, 100 complete control), approx. 10 d, read-out: Blackgrass plant response rating): 0%
pest or weed control at 31 g/ha ([10]; Postemergence, 31 g ai/ha, visual injury after approx. 10 d, 0 to 100 scale, 0 no effect, 100 complete control, read-out: Plant response rating, Blackgrass): 0%
pest or weed control at 125 g/ha ([11]; 125 g ai/ha, postemergence, visual injury on 0 to 100 scale (0 no effect, 100 complete control), approx. 10 d, read-out: Barnyardgrass plant response rating): 90%
pest or weed control at 31 g/ha ([11]; Postemergence, 31 g ai/ha, visual injury after approx. 10 d, 0 to 100 scale, 0 no effect, 100 complete control, read-out: Plant response rating, Barnyardgrass): 30%
pest or weed control at 125 g/ha ([12]; 125 g ai/ha, postemergence, visual injury on 0 to 100 scale (0 no effect, 100 complete control), approx. 10 d, read-out: Ragweed plant response rating): 0%
pest or weed control at 31 g/ha ([12]; Postemergence, 31 g ai/ha, visual injury after approx. 10 d, 0 to 100 scale, 0 no effect, 100 complete control, read-out: Plant response rating, Ragweed): 0%
pest or weed control at 125 g/ha ([13]; 125 g ai/ha, postemergence, visual injury on 0 to 100 scale (0 no effect, 100 complete control), approx. 10 d, read-out: Galium plant response rating): 0%
pest or weed control at 31 g/ha ([13]; Postemergence, 31 g ai/ha, visual injury after approx. 10 d, 0 to 100 scale, 0 no effect, 100 complete control, read-out: Plant response rating, Galium): 0%
pest or weed control at 125 g/ha ([14]; 125 g ai/ha, postemergence, visual injury on 0 to 100 scale (0 no effect, 100 complete control), approx. 10 d, read-out: Ryegrass, Italian plant response rating): 0%
pest or weed control at 31 g/ha ([14]; Postemergence, 31 g ai/ha, visual injury after approx. 10 d, 0 to 100 scale, 0 no effect, 100 complete control, read-out: Plant response rating, Ryegrass, Italian): 0%
pest or weed control at 31 g/ha ([15]; 31 g ai/ha, Preemergence): 90%
pest or weed control at 125 g/ha [15, 21]: 100%
pest or weed control at 31 g/ha ([16]; 31 g ai/ha, Preemergence): 0%
pest or weed control at 125 g/ha [16, 21]: 0%
pest or weed control at 31 g/ha ([17]; 31 g ai/ha, Preemergence): 0%
pest or weed control at 125 g/ha [17, 21]: 0%
pest or weed control at 31 g/ha ([18]; 31 g ai/ha, Preemergence): 40%
pest or weed control at 125 g/ha [18, 21]: 90%
pest or weed control at 31 g/ha ([19]; 31 g ai/ha, Preemergence): 0%
pest or weed control at 125 g/ha [19, 21]: 0%
pest or weed control at 31 g/ha ([20]; 31 g ai/ha, Preemergence): 0%
pest or weed control at 125 g/ha [20, 21]: 0%
